# Literature values as cited in patent US20030114475A1, “Methods for the treatment of addiction” (Addiction Therapies, Inc., priority 2001, published 2003).
# Key:
# [1] = in vivo
# [2] = system: cocaine self-administration
# dopamine transporter = dopamine transporter (Homo sapiens, UniProt Q01959)
# [3] = in vivo; remark: listed apart in the source
# Sequence of dopamine transporter (Q01959 whole entry): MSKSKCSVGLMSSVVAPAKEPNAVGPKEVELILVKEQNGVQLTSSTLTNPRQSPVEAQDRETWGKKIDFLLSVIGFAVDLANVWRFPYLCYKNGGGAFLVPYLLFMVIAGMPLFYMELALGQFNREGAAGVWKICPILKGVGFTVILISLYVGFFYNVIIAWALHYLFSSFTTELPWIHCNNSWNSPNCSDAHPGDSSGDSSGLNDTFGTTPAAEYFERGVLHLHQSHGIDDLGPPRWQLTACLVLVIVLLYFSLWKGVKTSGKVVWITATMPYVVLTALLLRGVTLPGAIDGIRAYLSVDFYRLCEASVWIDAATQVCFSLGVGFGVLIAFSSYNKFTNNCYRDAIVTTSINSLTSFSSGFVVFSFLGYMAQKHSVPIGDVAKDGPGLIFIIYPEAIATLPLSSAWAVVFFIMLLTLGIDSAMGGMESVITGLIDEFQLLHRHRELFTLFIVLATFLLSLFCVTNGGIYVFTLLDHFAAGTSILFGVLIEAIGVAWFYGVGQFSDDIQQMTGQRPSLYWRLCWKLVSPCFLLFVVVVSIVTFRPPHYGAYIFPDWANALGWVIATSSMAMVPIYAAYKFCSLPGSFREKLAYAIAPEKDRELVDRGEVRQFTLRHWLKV
smiles,measurement,setting,value
"COC(=O)C(c1ccccc1)C1CCCCN1 (stereo not drawn) [Methylphenidate, methylphenidate]",elimination half-life,[1],2 to 3 h
same,time to peak plasma concentrations,[1],1 to 3 h
Cc1ccc(-c2cc([C@@H]3C4CCC(C[C@@H]3c3ccc(Cl)cc3)N4C)on2)cc1 (stereo partly drawn) [RTI-336],effect on cocaine self-administration,[2]; rats,inhibits cocaine self-administration
same,lever presses for a cocaine infusion after pre-treatment,"[2]; rats pre-treated with 53.8 mg/kg, oral, decreased from 150±20 lever presses, unpublished observations, Dr. Susan Schenck",36±14 lever presses
same,affinity and selectivity for the dopamine transporter,dopamine transporter,high affinity and selectivity
same,oral availability,[3],orally available
